Test results as given in PubChem BioAssay (NCI).
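48-hour exposure; five concentrations; linearly interpolated endpoints. Abbreviation: GI50, concentration required for 50% inhibition of growth. TGI marks complete inhibition of growth.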

Legend:
Assay in all cases: growth of human tumour cells (NCI), 48 h
SK-MEL-5 melanoma = system: SK-MEL-5 melanoma
SNB-19 CNS = system: SNB-19 CNS
TK-10 renal = system: TK-10 renal
RXF 393 renal = system: RXF 393 renal
OVCAR-3 ovarian = system: OVCAR-3 ovarian
NCI-H522 lung = system: NCI-H522 lung
A498 renal = system: A498 renal
HOP-92 NSCLC = system: HOP-92 NSCLC
SR leukemia = system: SR leukemia
HS 578T breast = system: HS 578T breast

Row | Compound | GI50 (SK-MEL-5 melanoma) [µM] | TGI (SK-MEL-5 melanoma) [µM] | GI50 (SNB-19 CNS) [µM] | TGI (SNB-19 CNS) [µM] | GI50 (TK-10 renal) [µM] | TGI (TK-10 renal) [µM] | GI50 (RXF 393 renal) [µM] | TGI (RXF 393 renal) [µM] | GI50 (OVCAR-3 ovarian) [µM] | TGI (OVCAR-3 ovarian) [µM] | GI50 (NCI-H522 lung) [µM] | TGI (NCI-H522 lung) [µM] | GI50 (A498 renal) [µM] | TGI (A498 renal) [µM] | GI50 (HOP-92 NSCLC) [µM] | TGI (HOP-92 NSCLC) [µM] | GI50 (SR leukemia) [µM] | TGI (SR leukemia) [µM] | GI50 (HS 578T breast) [µM] | TGI (HS 578T breast) [µM]
1 | C=C1C(=O)O[C@H]2[C@H]1CC/C(COC(=O)c1cc3ccccc3s1)=C\CC[C@@]1(C)O[C@@H]21 | 1.75 | 3.21 | 2.09 | 4.97 | 1.55 | 2.93 | 1.23 | 2.66 | 0.446 | 1.66 | 0.987 | 2.34 | 10.1 | 21.8 | 1.68 | 3.49 | 0.52 | 4.54 | 2.89 | 8.52
2 | Fc1ccc(-c2nn3ncccc3c2-c2ccnc(Nc3ccc4c(c3)OCCO4)n2)cc1 | 3.99 | 9.51 | 19.4 | > 25 | 1.35 | 9.93 | 1.07 | 7.22 | 2.12 | > 16.2 | 3.56 | 10.7 | 4.04 | 17.1 | 2.61 | 18.8 | 5.74 | > 23.2 | 2.15 | > 23.2
3 | COC(=O)c1c(C)[nH]c(/C=C2\N=C(c3ccc[nH]3)C=C2OC)c1C | 0.225 | 0.665 | 1.87 | > 100 | 0.141 | 4.03 | 0.515 | 4.27 | 0.152 | 2.09 | 0.367 | 2.44 | 2.64 | 10.7 | 0.169 | 0.711 | 0.0947 | 0.679 | 0.693 | –
4 | COc1cc2c3c(n(CCCCOC(=O)C(Cl)(Cl)Cl)c(=O)c2cc1OC)-c1cc2c(cc1C3=O)OCO2 | > 100 | > 100 | > 100 | > 100 | > 100 | > 100 | – | – | > 100 | > 100 | 0.692 | 76.3 | > 100 | > 100 | > 100 | > 100 | 1.14 | 15 | 94.7 | > 100
5 | Cc1ccc(NC(=O)NCCCOc2ccc(N3C(N)=NC(N)=NC3(C)C)cc2Cl)cc1S(=O)(=O)F | 1.88 | 21.5 | 6.04 | > 100 | – | – | 98.3 | > 100 | 8.6 | > 100 | – | – | 75.5 | > 100 | 18.9 | 75.1 | 0.724 | > 100 | 16.7 | > 100
6 | CC[CH2][Sn]([Cl])([Cl])[CH2]CC.Oc1ccccc1C=NCCN=Cc1ccccc1O | 4.87 | 17.5 | 12.1 | 25 | – | – | 2.41 | 8.11 | 9.29 | 21.4 | – | – | 2.22 | 6.03 | 2.09 | 8.8 | 5.45 | > 100 | 2.33 | 9.09
7 | O=C1OC(c2ccco2)=N/C1=C\c1cccc([N+](=O)[O-])c1 | – | > 100 | – | > 100 | – | > 100 | – | – | – | > 100 | – | > 100 | – | > 100 | – | > 100 | – | > 100 | – | > 100
8 | C/C=C(\C)CC/C=C/CO[Si](C)(C)C(C)(C)C | – | > 100 | – | > 100 | – | > 100 | – | > 100 | – | > 100 | – | > 100 | – | > 100 | – | – | – | 56.3 | – | > 100
9 | CNc1nc(N)c(N=O)c(Nc2ccc(Br)cc2)n1 | – | > 100 | – | > 100 | – | > 100 | – | > 100 | – | > 100 | – | > 100 | – | – | – | – | – | > 100 | – | 65
10 | COc1ccc(-c2nnc(COc3ccc(NC(=O)Nc4ccc(Cl)c(C(F)(F)F)c4)cc3F)o2)cc1 | 2.1 | 5.36 | 4.02 | 24.2 | 9.09 | 41.4 | – | – | 3.02 | 10.5 | – | – | 3.19 | 20 | 1.87 | 5.45 | 1.39 | 4.09 | 3.26 | 18.1
11 | CN1C(=O)c2ccccc2NC(=O)C12O[C@@H]2c1cccc(O)c1 (stereo not given in full) | – | > 100 | – | > 100 | – | > 100 | – | – | – | > 100 | – | > 100 | – | > 100 | – | > 100 | – | > 100 | – | > 100
